Measurements taken from patent publication US4221800A, “Cycloalkenochromone” (Miles Laboratories, Inc., priority 1977, dated 1980).

Key:
[1] = test system: mast cells; assay: inhibition of mast cell degranulation (spasmogen release) induced by phospholipase A; assay type: cell-based, rat; conditions: for Relative Potency (in relation to disodium cromoglycate): IC20 relative to disodium cromoglycate, rat mast cells; for IC20: Mast cell, rat peritoneal mast cells, 37° C., ten minutes, read-out: IC20 (inhibition of mast cell degranulation by 20%)
Experimental: The anti-allergic activity was determined by measuring the inhibition of allergic release of spasmogens from mast cells, using the method of Taylor et al., as described in Int. Arch. Allergy, 46, 104(1974).
The inhibition of spasmogen release from mast cells involved obtaining pools of mast cells from normal rats. For each experiment involving pools of mast cells, 10 or more rats were killed by decapitation. The peritoneal fluid from the animals was pooled and the pool dispensed into small polyethylene tubes […] containing 25 μl of a degranulating agent phospholipase A (PL-A), and 25 μl of the drug to be tested. Each treatment was repeated in at least four tubes. All the tubes were incubated at 37° C. for ten minutes. The mast cells were fixed and stained by addition of 50 μl/tube of 2.5% toluidine blue made up in 25% acetic acid. The proportion of mast cells undergoing degranulation was assessed by counting under the microscope. At least 25 mast cells were counted from each tube. The percentage inhibition of degranulation resulting from each treatment was calculated using the formula 100[1-(x-z)/(y-z)], where `x` represents the mean percentage of cells undergoing degranulation in the tubes treated with PL-A and drug, `y` represents the mean percentage of cells undergoing degranulation in the tubes treated with PL-A only, and "z" represents the mean percentage of cells undergoing degranulation in the PL-A-negative tubes.
[See Nature, Vo. 223, 197 (1969)].

[2] = test system: allergen-induced bronchoconstriction; conditions: asthmatics; reference compound; cited from earlier work
[3] = test system: allergic release of spasmogens in immediate hypersensitivity reactions; conditions: immediate hypersensitivity reactions in several animals; Nature 223, 197 (1969); cited from earlier work

Compound | Relative Potency (in relation to disodium cromoglycate) [1] | IC20 [1] | inhibition of experimental allergen-induced bronchoconstriction (in words) [2] | inhibition of allergic release of spasmogens (in words) [3]
O=C(O)c1ccc2oc3c(c(=O)c2c1)CCCC3 [Example 1, 6-Carboxy-2,3-cyclohexenochromone] | 3.1 | 2100 nM |  | 
O=c1c2c(oc3ccc(-c4nn[nH]n4)cc13)CCCC2 [Example 2, 6-(5-(1H)-tetrazolyl)-2,3-cyclohexenochromone] | 3.8 | 1700 nM |  | 
CC1CCc2oc3ccc(C(=O)O)cc3c(=O)c2C1 (centres unmarked) [Example 3, 6-Carboxy-2,3-(4'-methylcyclohexeno)chromone] | 1.0 | 6500 nM |  | 
CC1CCc2oc3ccc(-c4nn[nH]n4)cc3c(=O)c2C1 (centres unmarked) [Example 4, 6-(5-(1H)-tetrazolyl)-2,3-(4'-methylcyclohexeno)chromone] | 1.4 | 4500 nM |  | 
CCC1CCc2oc3ccc(C(=O)O)cc3c(=O)c2C1 (centres unmarked) [Example 5, Sodium-6-carboxy-2,3-(4'-ethylcyclohexeno)chromone] | 11.2 | 580 nM |  | 
CCC1CCc2oc3ccc(-c4nn[nH]n4)cc3c(=O)c2C1 (centres unmarked) [Example 6, Sodium 6-(5-(1H)-tetrazolyl)-2,3-(4'-ethylcyclohexeno)chromone] | 6.5 | 1000 nM |  | 
O=C(O)c1ccc2oc3c(c(=O)c2c1)CC(C(=O)O)CC3 (centres unmarked) [Example 7, 6-Carboxy-2,3-(4'-carboxycyclohexeno)chromone] | 1.0 | 6500 nM |  | 
CCOC(=O)C1CCc2oc3ccc(-c4nn[nH]n4)cc3c(=O)c2C1 (centres unmarked) [Example 8, 6-(5-(1H)-tetrazolyl)-2,3-(4'-ethoxycarbonylcyclohexeno)chromone] | 1.6 | 4200 nM |  | 
O=c1c2c(oc3ccc(-c4nn[nH]n4)cc13)CCCCCC2 [Example 13, 6-(5-(1H)-tetrazolyl)-2,3-cyclooctenochromone] | 5.0 | 1300 nM |  | 
O=C(O)c1ccc2oc3c(c(=O)c2c1)CC(OCc1ccccc1)CC3 (centres unmarked) [Example 15, 6-Carboxy-2,3-(4'-benzyloxycyclohexeno)chromone] | 1.5 | 4300 nM |  | 
CSc1ccc2oc3c(c(=O)c2c1)CC(C(=O)O)CC3 (centres unmarked) [Example 18, 6-Methylthio-2,3-(4'-carboxycyclohexeno)chromone] | 5.0 | 1300 nM |  | 
CS(=O)(=O)c1ccc2oc3c(c(=O)c2c1)CC(C(=O)O)CC3 (centres unmarked) [Example 20, 6-Methylsulfonyl-2,3-(4'-carboxycyclohexeno)chromone] | 3.4 | 1900 nM |  | 
COC1CCc2oc3ccc(C(=O)O)cc3c(=O)c2C1 (centres unmarked) [Example 21, 6-Carboxy-2,3-(4'-methoxycyclohexeno)chromone] | 3.6 | 1800 nM |  | 
O=C(O)c1ccc2c(=O)c3c(oc2c1)CCCC3 [Example 24, 7-Carboxy-2,3-cyclohexenochromone] | 3.1 | 2100 nM |  | 
O=c1c2c(oc3cc(-c4nn[nH]n4)ccc13)CCCC2 [Example 25, 7(5-(1H)-tetrazolyl)-2,3-cyclohexenochromone] | 7.2 | 900 nM |  | 
CCC1CCc2oc3cc(C(=O)O)ccc3c(=O)c2C1 (centres unmarked) [Example 26, 7-Carboxy-2,3-(4'-ethylcyclohexeno)chromone] | > 13.0 | < 600 nM |  | 
CCC1CCc2oc3cc(-c4nn[nH]n4)ccc3c(=O)c2C1 (centres unmarked) [Example 27, 7-(5-(1H)-tetrazolyl)-2,3-(4'-ethylcyclohexeno)chromone] | > 13.0 | < 600 nM |  | 
CC1(c2ccccc2)CCc2oc3ccc(-c4nn[nH]n4)cc3c(=O)c2C1 (centres unmarked) [Example 31, 6-(5-(1H)-tetrazolyl)-2,3-(4'-methyl-4'-phenylcyclohexeno)chromone] | 4.3 | 1500 nM |  | 
CCC1CCC2=C(C1)C(=O)c1cc(C(=O)O)ccc1S2(=O)=O (centres unmarked) [Example 32, 6-Carboxy-2,3-(4'-ethylcyclohexeno)thiochromone-1,1-dioxide] | 10.8 | 600 nM |  | 
CCC1CCc2sc3ccc(C(=O)O)cc3c(=O)c2C1 (centres unmarked) [Example 33, 6-Carboxy-2,3-(4'-ethylcyclohexeno)thiochromone] | 1.41 | 4600 nM |  | 
CCC1CCc2sc3ccc(-c4nn[nH]n4)cc3c(=O)c2C1 (centres unmarked) [Example 35, 6-(5-(1H)-tetrazolyl)-2,3-(4'-ethylcyclohexeno)thiochromone] | 18,1 | 360 nM |  | 
O=C(O)c1cc(=O)c2c(OCC(O)COc3cccc4oc(C(=O)O)cc(=O)c34)cccc2o1 [disodium cromogylcate] |  |  | effective inhibitor of experimental allergen-induced bronchoconstriction in asthmatics | specifically inhibit the allergic release of spasmogens in immediate hypersensitivity reactions in several animals
